Measured values: EP4497440A1, “USE OF 7-TRIFLUOROMETHYL-7ALPHA,25-DIHYDROXYCHOLESTEROL IN THE TREATMENT AND MODULATION OF AUTOIMMUNE AND INFLAMMATORY DISEASES OF THE NERVOUS SYSTEM AND NEURODEGENERATIVE DISEASES” (Gdanski Uniwersytet Medyczny, priority 2023, dated 2025)
Several values for one entry are separate records, joined by “and”; a condition that tells them apart may be missing. Equal values may be shown once. Entries after “also recorded” stand apart in the source; their conditions may differ.

What was measured:
white blood cells = experiment: Cuprizone model: blood morphology (white blood cell counts); type: in vivo, mice
Procedure: C (Fig 7) or #3 (Fig 8 and 9) vehicle control group - the mice were fed with chow containing cuprizone for 9 weeks, and then with regular chow without cuprizone for another 2 weeks. Over the 2 weeks on regular chow the mice in the vehicle control group were first injected vehicle #1: DMSO (intraperitoneal injection), 150 µl once a day, and then vehicle #2: canola oil, subcutaneously, 150 µl once a day.
#4 (Fig 8 and 9) barbadin control group - the mice were fed with chow containing cuprizone for 9 weeks, and then with regular chow without cuprizone for another 2 weeks. Over the 2 weeks on regular chow the mice in the group were injected barbadin 0.3 mg/kg, intraperitoneally, 150 µl once a day, and then vehicle #2: canola oil, subcutaneously, 150 µl once a day.
E (Fig 7) or #5 experimental group with oxysterol CF3-7α,25OHC - the mice were fed with chow containing cuprizone for 9 weeks, and then with regular chow without cuprizone for another 2 weeks. Over the 2 weeks on regular chow the mice in the group were injected vehicle #1: DMSO, intraperitoneally, 150 µl once a day, and CF3-7α,25OHC, dose: 20 mg/kg, subcutaneously, 150 µl once a day.
#6 (Fig 8 and 9) experimental group with barbadin + oxysterol CF3-7α,25OHC - the mice were fed with chow containing cuprizone for 9 weeks, and then with regular chow without cuprizone for another 2 weeks. Over the 2 weeks on regular chow the mice in the group were injected barbadin, 0.3 mg/kg, intraperitoneally, 150 µl once a day, and then one hour following the barbadin injection they were injected CF3-7α,25OHC, dose: 20 mg/kg, subcutaneously, 150 µl once a day.
The blood from the heart was sampled after the mice had been euthanised, and blood morphology test was performed using a standard diagnostic analyser. […] The lymphocyte count in peripheral blood of the mice which had been injected with CF3-7α,25OHC was lower by 50% compared to the control group of mice injected with vehicles (gr. #3 or C). The specific action of CF3-7α,25OHC leading to reduction of the lymphocyte count in blood finds confirmation in the results obtained for the mice of groups #4 (or D) and #6 (or F). Compared to the control group, the lymphocyte count in blood in the group of mice injected with barbadin (#4 or D) was lower only by 21%, and in the group of mice injected with barbadin + CF3-7α,25OHC by 7%. Following interaction with CF3-7α,25OHC, barbadin blocks internalisation of the EBI2 receptor from the cell membrane. The absence of any significant effect related to the treatment with barbadin or barbadin + CF3-7α,25OHC indicates a specific action of CF3-7α,25OHC on the EBI2 receptor and the consequential effects of that action, namely reduction of the count of circulating lymphocytes in blood. Moreover, the number of monocytes in group #5 (or E: mice treated with CF3-7α,25OHC) was lower by as much as 66% and the total leukocyte count (lymphocytes and monocytes included) was also substantially lower (by 51%), though only in the group of mice injected with CF3-7α,25OHC. In our subsequent in vivo tests (short-term pharmacology) we confirmed the action of CF3-7α,25OHC. In that test, too, it reduced the count of white blood cells. CF3-7α,25OHC reduces the lymphocyte count as early as following the 4 mg/kg dose and the effect lasts for 24 hours following administration.

lymphocytes = experiment: Short-term pharmacology model: blood count after a single injection; type: in vivo, mice; conditions: single subcutaneous injection
Procedure: Mouse groups in the short-term pharmacology model (Fig 10): Control: one vehicle injection (canola oil). The number of lymphocytes in the group is marked on the graph with the transverse line. The vehicle injection was administered to the mice subcutaneously (100 µl), following which the mice were euthanized after 6 hours (8 mice), 12 hours (8 mice), 24 hours (8 mice), or 48 hours (8 mice).
The 0.8 mg/kg dose group: single injection with CF3-7α,25OHC at the dose of 0.8 mg/kg. The oxysterol injection was administered to the mice subcutaneously (100 µl), following which the mice were euthanized after 6 hours (8 mice), 12 hours (8 mice), 24 hours (8 mice), or 48 hours (8 mice).
The 4 mg/kg dose group: single injection with CF3-7α,25OHC at the dose of 4 mg/kg. The oxysterol injection was administered to the mice subcutaneously (100 µl), following which the mice were euthanized after 6 hours (8 mice), 12 hours (8 mice), 24 hours (8 mice), or 48 hours (8 mice).
The 20 mg/kg dose group: a single injection with CF3-7α,25OHC at the dose of 20 mg/kg. The oxysterol injection was administered to the mice subcutaneously (100 µl), following which the mice were euthanized after 6 hours (8 mice), 12 hours (8 mice), 24 hours (8 mice), or 48 hours (8 mice).
The 100 mg/kg dose group: a single injection with CF3-7α,25OHC at the dose of […]. […]

[1] = in vivo, from reference [6]; cited from earlier work
Ch25h, Cyp7b1, Hsd3b7 = experiment: mRNA level of synthesizing and degrading enzymes in the cerebellum, cuprizone model; type: in vivo, mice
[2] = tested on: mouse organotypic cerebellar slices; experiment: Remyelination of organotypic cerebellar slices after LPC demyelination (Mbp mRNA by quantitative PCR); type: cell-based; conditions: LPC 0.4 mg/ml, then treatment in serum-free culture medium for 14-16 days; barbadin 16 µM, 7α,25OHC 0.1 µM, NIBR189 10 µM; concentration of CF3-7α,25OHC not given; vs untreated LPC slices
Procedure: Organotypic cerebellar slices were sampled from ten-day old mice and then grown in an incubator for 14 days. After 14 days the myelin was chemically removed with LPC (0.4 mg/ml). Following the removal of the myelin sheaths, the slices were treated with: • 1. the control group: regular culture medium, without LPC • 2. LPC, then on serum-free culture medium for 14-16 days • 3. LPC followed by barbadin 16 µM in serum-free culture medium for 14-16 days • 4. LPC followed by 7α,25OHC 0.1 µM in serum-free culture medium for 14-16 days • 5. LPC followed by NIBR189 10 µM in serum-free culture medium for 14-16 days • 6. LPC followed by barbadin 16 µM + 7α,25OHC 0.1 µM in serum-free culture medium for 14-16 days
Once the experiment was completed (remyelination for 14-16 days) the slices were collected and MBP mRNA levels were measured by the PCR quantitative method. In the mouse organotypic cerebellar slices in which myelin sheaths were chemically removed with lysophosphatidylcholine (LPC) spontaneous myelin regeneration took place except for the slices treated with a selective EBI2 receptor antagonist (NIBR189). The results once again reveal key significance of EBI2 intracellular signalling for myelin regeneration. […] Barbadin, which inhibits internalisation of the EBI2 receptor, is necessary to achieve the therapeutic effect (faster remyelination) in the case of non-modified oxysterol (Fig 1 and Fig 2a).

[3] = after 14 days of treatment during remyelination in the cuprizone model

`C[C@H](CCCC(C)(C)O)[C@H]1CC[C@H]2[C@H]3[C@H](CC[C@]12C)[C@@]1(C)CC[C@H](O)CC1=C[C@]3(O)C(F)(F)F` [CF3-7α,25OHC, cholestene-7β-trifluoromethyl,3β,7α,25-triol] showed a drop in eosinophils (white blood cells; [3]) of 43%, a drop in monocytes (white blood cells; [3]) of 66% and a drop in neutrophils (white blood cells; [3]) of 14%. The “drop in the total number of white blood cells (total leukocyte count)” value (white blood cells; after 14 days of treatment during remyelination in the cuprizone model, compared to vehicle group) was 51%, the “drop in lymphocytes (lymphocyte count in peripheral blood lower by)” value (white blood cells; after 14 days of treatment in the cuprizone model, CF3-7α,25OHC 20 mg/kg s.c., barbadin 0.3 mg/kg i.p., compared to vehicle group #3) was 51% and 50% and the “number of white blood cells (leukocytes, lymphocytes, monocytes)” value (white blood cells; cuprizone model, group #5 (E)) was “went down; also recorded: substantially reduced”. For the same compound, the “duration of the lymphocyte-reducing effect following administration” value (lymphocytes) was 24 h, the “lowest dose that reduces the level of lymphocytes” value (lymphocytes; doses 0.8, 4, 20, 100 mg/kg, blood count after 6, 12, 24 or 48 hours) was 4 mg/kg and the “in vivo half life” value [1] was 12 h. The “expression level of the synthesizing (Ch25h, Cyp7b1) and degrading (Hsd3b7) enzymes” value (Ch25h, Cyp7b1, Hsd3b7) was “does not regulate the expression level” and the “remyelination (Mbp expression)” value [2] was “remyelinate quicker than slices not treated with anything; also recorded: remyelinate faster than the untreated slices”.
